Test results taken from patent publication US6358515B2, “Hydroquinone derivatives” (Senju Pharmaceutical Co., Ltd., priority 1997, dated 2002).

Experiments:
[1] = test system: Intraocular Pressure of Rabbit; test: Intraocular pressure lowering effect in rabbits (eye drop instillation, tonometer); format: in vivo, Male Dutch rabbits; conditions: for Intraocular pressure, 1 hr: 1 hr after instillation of 50 μl of 0.5% eye drops into the right eye; for Intraocular pressure, 1 hr / Intraocular pressure, 2 hr / Intraocular pressure, 3 hr / Intraocular pressure, 4 hr / Intraocular pressure, 0 hr: mean ± SD (n = 4-5); for Intraocular pressure, 2 hr: 2 hr after instillation of 50 μl of 0.5% eye drops into the right eye; for Intraocular pressure, 3 hr: 3 hr after instillation of 50 μl of 0.5% eye drops into the right eye; for Intraocular pressure, 4 hr: 4 hr after instillation of 50 μl of 0.5% eye drops into the right eye; for Intraocular pressure, 0 hr: initial value (0 hr) before instillation
Experimental: The present compound was tested for its intraocular pressure lowering effect.
Male Dutch rabbits of about 2.5 kg body weight were used in the test.
Intraocular pressure was measured by means of a contact type tonometer (ALCON Applanation Pneumatonograph) after instillation of oxybuprocaine hydrochloride [Anelocal (registered trademark) eye drops: SENJU Pharmaceutical Co., Ltd.] into both eyes of the rabbits for local anesthesia.
Eye drops were prepared each containing one of the test compounds at a concentration of 0.5% and 50 μl of it was instilled into the right eye. Intraocular pressure of both eyes was measured over time (0, 1, 2, 3, 4 hours). For analysis, Student t-test was conducted for the intraocular pressure measured at each time against the initial value.

[2] = Radical scavenging ability on the stable radical DPPH; conditions: for IC50: DPPH radical; for Radical scavenging activity (in words) / Radical scavenging rate (%): DPPH; for Radical scavenging activity (in words): 1-1000 μM; for Radical scavenging rate (%): 20 minutes, absorbance at 517 nm
Experimental: The present compound was tested for its scavenging ability on a stable radical of 1,1-diphenyl-2-picrylhydrazide (DPPH).
The test was carried out according to the method described by Blois, M. S., Nature, 181: 1199 ([…]).
Each of the test compound was dissolved in purified water to prepare 10^−5-10^−2 M test solutions. To 300 μl each of the test solutions was added 2.7 ml of a […] solution of the stable radical, DPPH, in ethanol and stirred. The mixture was allowed to stand for 20 minutes, and absorbance at 517 nm was measured. Radical scavenging ability was determined for each of the test solutions according to the following equation.
Radical scavenging rate (%)=(Absorbance of control−Absorbance of test solution[…])×100

[3] = test system: Blood Pressure of SHR Rat; test: Effect on blood pressure of SHR rat (oral administration); format: in vivo, male SHR/Izm rats; conditions: mean ± SD (n = 4-5); for Blood pressure, 1 hr: 1 hr after 30 mg/kg orally; for Blood pressure, 2 hr: 2 hr after 30 mg/kg orally; for Blood pressure, 3 hr: 3 hr after 30 mg/kg orally; for Blood pressure, 4 hr: 4 hr after 30 mg/kg orally; for Blood pressure, 0 hr: initial value (0 hr) before administration
Experimental: The present compound was tested for its blood pressure lowering effect.
About 25-week old male SHR/Izm rats were used in the test.
Initial value of the blood pressure of rat tail vein was measured with a non-invasive automatic manometer for small animals, UR-5000 (UEDA Seisakusho), and then one of the test compounds 30 mg/kg was orally administered. Blood pressure was measured in the same manner 1, 2, 3 and 4 hours after administration. For analysis, Student t-test was conducted for the blood pressure measured at each time against the initial value.

SMILES | melting point | Intraocular pressure, 1 hr [1] | Intraocular pressure, 2 hr [1] | Intraocular pressure, 3 hr [1] | Intraocular pressure, 4 hr [1] | Intraocular pressure, 0 hr [1] | Blood pressure, 1 hr [3] | Blood pressure, 2 hr [3] | Blood pressure, 3 hr [3] | Blood pressure, 4 hr [3] | Blood pressure, 0 hr [3] | also measured
COc1ccccc1N1CCN(C(Oc2cc(C)c(O)c(OC)c2OC)C(C)O)CC1.Cl (stereo not shown) | 138 to 140 °C | – | – | – | – | – | – | – | – | – | – | –
COc1ccccc1N1CCN(CC(O)COc2cc(C)c(O)cc2C)CC1.Cl.Cl (stereo not shown) | 214 to 215 °C (dec.) | – | – | – | – | – | – | – | – | – | – | –
COc1ccc(N2CCN(CC(O)COc3ccc(O)cc3)CC2)c(OC)c1.Cl.Cl (stereo not shown) | 213 to 215 °C (dec.) | – | – | – | – | – | – | – | – | – | – | –
COc1ccc(C)cc1N1CCN(CC(O)COc2ccc(O)cc2)CC1.Cl.Cl (stereo not shown) | 222 to 224 °C | – | – | – | – | – | – | – | – | – | – | –
COc1ccc(OC)c(N2CCN(CC(O)COc3ccc(O)cc3C)CC2)c1.Cl.Cl (stereo not shown) | 168 to 170 °C (dec.) | – | – | – | – | – | – | – | – | – | – | –
COc1ccccc1N1CCN(CC(O)COc2ccc(O)cc2C)CC1.Cl.Cl (stereo not shown) | 192 to 194 °C (dec.) | – | – | – | – | – | – | – | – | – | – | –
COc1ccccc1N1CCN(CC(O)COc2ccc(O)c(C)c2)CC1.Cl.Cl (stereo not shown) | 214 to 216 °C (dec.) | – | – | – | – | – | – | – | – | – | – | –
COc1ccccc1N1CCN(CC(O)COc2cc(C)c(O)c3ccccc23)CC1 (stereo not shown) [Example 2, 1-(3-Methyl-4-hydroxynaphthoxy)-3-[4-(2-methoxyphenyl)-1-piperazinyl]propan-2-ol] | – | 21.8 ± 2.05^*1 mmHg | 24.4 ± 1.82 mmHg | 25.8 ± 2.39 mmHg | 26.6 ± 2.88 mmHg | 25.2 ± 1.30 mmHg | 204.0 ± 17.6 mmHg | 192.2 ± 6.2^*1 mmHg | 191.2 ± 14.6^*1 mmHg | 187.8 ± 11.4^*1 mmHg | 216.8 ± 18.0 mmHg | IC50 [2]: 23 µM; Radical scavenging activity (in words) [2]: concentration-dependently exhibited a radical scavenging activity; Radical scavenging rate (%) ([2]; final concentration 1 μM): 7.8%; Radical scavenging rate (%) ([2]; final concentration 10 μM): 24.9%; Radical scavenging rate (%) ([2]; final concentration 30 μM): 61.0%; Radical scavenging rate (%) ([2]; final concentration 100 μM): 99.4%; Radical scavenging rate (%) ([2]; final concentration 1000 μM): 99.8%
COc1ccccc1N1CCN(CC(O)COc2c(C)cc(O)c3ccccc23)CC1.Cl.Cl (stereo not shown) [Example 4, 1-(2-Methyl-4-hydroxynaphthoxy)-3-[4-(2-methoxyphenyl)-1-piperazinyl]propan-2-ol dihydrochloride] | – | 17.3 ± 2.06^*3 mmHg | 15.0 ± 3.74^*2 mmHg | 15.8 ± 2.06^*3 mmHg | 20.8 ± 2.22^*2 mmHg | 26.5 ± 1.75 mmHg | 201.8 ± 7.7^*3 mmHg | 207.8 ± 13.8^*2 mmHg | 212.2 ± 3.8^*3 mmHg | 212.2 ± 20.8^*1 mmHg | 240.0 ± 8.5 mmHg | Intraocular pressure lowering effect (in words) ([1]; 0.5% eye drops): a potent intraocular pressure lowering effect was observed since one hour after instillation; Time of peak intraocular pressure lowering effect after instillation ([1]; 0.5% eye drops): 2 h; IC50 [2]: 42 µM; Radical scavenging activity (in words) [2]: concentration-dependently exhibited a radical scavenging activity; Radical scavenging rate (%) ([2]; final concentration 1 μM): 6.7%; Radical scavenging rate (%) ([2]; final concentration 10 μM): 16.6%; Radical scavenging rate (%) ([2]; final concentration 30 μM): 37.7%; Radical scavenging rate (%) ([2]; final concentration 100 μM): 75.4%; Radical scavenging rate (%) ([2]; final concentration 1000 μM): 91.7%
COc1ccccc1N1CCN(CC(O)COc2cc(C)c(O)c(C)c2)CC1.Cl.Cl (stereo not shown) [Example 17, 1-(3,5-Dimethyl-4-hydroxyphenoxy)-3-[4-(2-methoxyphenyl)-1-piperazinyl]propan-2-ol dihydrochloride] | 208 to 210 °C (dec.) | 25.4 ± 2.79^*1 mmHg | 25.4 ± 2.88^*1 mmHg | 27.0 ± 3.08 mmHg | 28.6 ± 4.22 mmHg | 30.0 ± 3.08 mmHg | 214.8 ± 9.9^*1 mmHg | 230.8 ± 13.0 mmHg | 225.0 ± 13.0 mmHg | 219.5 ± 10.6 mmHg | 247.3 ± 23.2 mmHg | –
COc1ccccc1N1CCN(CC(O)COc2ccc(O)c(C(C)(C)C)c2)CC1.Cl (stereo not shown) [Example 20, 1-(3-tert-Butyl-4-hydroxyphenoxy)-3-[4-(2-methoxyphenyl)-1-piperazinyl]propan-2-ol hydrochloride] | 170 to 172 °C | 22.2 ± 2.59^*1 mmHg | 25.2 ± 0.84 mmHg | 25.8 ± 2.59 mmHg | 28.0 ± 1.73 mmHg | 28.0 ± 3.81 mmHg | 204.8 ± 16.9^*2 mmHg | 215.0 ± 11.0^*2 mmHg | 217.5 ± 15.2^*1 mmHg | 216.3 ± 18.0^*1 mmHg | 250.3 ± 14.3 mmHg | –
COc1ccccc1N1CCN(CC(O)COc2ccc(O)c(C)c2C)CC1.Cl (stereo not shown) [Example 22, 1-(2,3-Dimethyl-4-hydroxyphenoxy)-3-[4-(2-methoxyphenyl)-1-piperazinyl]propan-2-ol hydrochloride] | 228 to 230 °C (dec.) | – | – | – | – | – | 218.3 ± 11.3^*1 mmHg | 231.0 ± 14.5 mmHg | 236.5 ± 9.1 mmHg | 241.0 ± 9.8 mmHg | 247.0 ± 10.7 mmHg | –
COc1ccccc1N1CCN(CC(O)COc2cc(C)c(O)c(C)c2C)CC1 (stereo not shown) [Example 23, 1-(2,3,5-Trimethyl-4-hydroxyphenoxy)-3-[4-(2-methoxyphenyl)-1-piperazinyl]propan-2-ol] | 163 to 165 °C | 20.8 ± 3.30^*1 mmHg | 22.8 ± 3.40 mmHg | 22.5 ± 3.42 mmHg | 23.8 ± 3.30 mmHg | 27.5 ± 3.42 mmHg | 193.3 ± 15.4 mmHg | 192.0 ± 10.8 mmHg | 179.3 ± 7.8^*1 mmHg | 192.0 ± 15.1 mmHg | 204.0 ± 14.4 mmHg | –
COc1ccc(OC)c(N2CCN(CC(O)COc3ccc(O)cc3)CC2)c1.Cl.Cl (stereo not shown) [Example 25, 1-(4-Hydroxyphenoxy)-3-[4-(2,5-dimethoxyphenyl)-1-piperazinyl]propan-2-ol dihydrochloride] | 205 to 207 °C | 26.8 ± 1.92^*2 mmHg | 25.4 ± 1.82^*2 mmHg | 28.6 ± 6.11 mmHg | 29.6 ± 2.07 mmHg | 31.6 ± 2.41 mmHg | – | – | – | – | – | –
